Measurements from PubChem BioAssay AID192 (DTP/NCI, 2004).
Where “and” joins values, the source holds several entries; their conditions need not be identical. Identical values can stand only once. Inconclusive results and toxic doses are left out. The calls were made as follows: active = survival T/C of 150% or more; inactive = T/C below 125% in these data.

Test system: BDF1 mice, B16 melanoma ip, median survival T/C
Test: NCI In Vivo Anticancer Drug Screen. Data for tumor model B16 Melanoma (intraperitoneal) in B6D2F1 (BDF1) mice
Conditions: endpoint: median survival time, higher = longer survival
Method in brief: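 Compounds were tested in mice carrying transplantable tumors. Survival or tumor size was recorded, and each value is the treated-group measurement (T) divided by that of the vehicle-treated control group (C).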

[1] = dose: 25.0 mg/kg/injection, schedule: Q01DX009 (ip), vehicle: saline with Tween-80
[2] = dose: 37.5 mg/kg/injection, schedule: Q04DX003 (ip), vehicle: saline with Tween-80
[3] = dose: 0.78 mg/kg/injection, schedule: Q01DX009 (ip), vehicle: Klucel (hydroxypropylcellulose) (HPC)
[4] = dose: 1.56 mg/kg/injection, schedule: Q01DX009 (ip), vehicle: Klucel (hydroxypropylcellulose) (HPC)
[5] = dose: 6.25 mg/kg/injection, schedule: Q01DX009 (ip), vehicle: Klucel (hydroxypropylcellulose) (HPC)
[6] = dose: 100.0 mg/kg/injection, schedule: Q01DX009 (ip), vehicle: Klucel (hydroxypropylcellulose) (HPC)
[7] = dose: 200.0 mg/kg/injection, schedule: Q01DX009 (ip), vehicle: Klucel (hydroxypropylcellulose) (HPC)
[8] = dose: 50.0 mg/kg/injection, schedule: Q01DX009 (ip), vehicle: saline with Tween-80
[9] = dose: 100.0 mg/kg/injection, schedule: Q01DX009 (ip), vehicle: saline with Tween-80
[10] = dose: 200.0 mg/kg/injection, schedule: Q01DX009 (ip), vehicle: saline with Tween-80
[11] = dose: 400.0 mg/kg/injection, schedule: Q01DX009 (ip), vehicle: saline with Tween-80
[12] = dose: 50.0 mg/kg/injection, schedule: Q01DX009 (ip), vehicle: Klucel (hydroxypropylcellulose) (HPC)

Measured: T/C

CC(C)CC(NC(=O)CCl)C(=O)O (centres undefined)
inactive: dose: 6.25 mg/kg/injection, schedule: Q01DX009 (ip), vehicle: saline with Tween-80 110 % of control | dose: 12.5 mg/kg/injection, schedule: Q01DX009 (ip), vehicle: saline with Tween-80 95 % of control | [1] 95 % of control

CC(C)(N)Cc1ccc(Cl)cc1
inactive: dose: 6.25 mg/kg/injection, schedule: Q01DX009 (ip), vehicle: saline 110 % of control | dose: 12.5 mg/kg/injection, schedule: Q01DX009 (ip), vehicle: saline 90 % of control | dose: 25.0 mg/kg/injection, schedule: Q01DX009 (ip), vehicle: saline 97 % of control | dose: 50.0 mg/kg/injection, schedule: Q01DX009 (ip), vehicle: saline 100 % of control | dose: 100.0 mg/kg/injection, schedule: Q01DX009 (ip), vehicle: saline 100 % of control

CC1CCC2(OC1)OC1C(O)C3C4CCC5CC(OC6OC(CO)C(OC7OC(CO)C(O)C(OC8OCC(O)C(O)C8O)C7OC7OC(CO)C(O)C(OC8OC(CO)C(O)C(O)C8O)C7O)C(O)C6O)C(O)CC5(C)C4CCC3(C)C1C2C (centres undefined)
inactive: dose: 0.62 mg/kg/injection, schedule: Q01DX009 (ip), vehicle: saline 109 % of control | dose: 1.25 mg/kg/injection, schedule: Q01DX009 (ip), vehicle: saline 99 % of control | dose: 2.5 mg/kg/injection, schedule: Q01DX009 (ip), vehicle: saline 103 % of control | dose: 5.0 mg/kg/injection, schedule: Q01DX009 (ip), vehicle: saline 92 % of control

CC(=O)[C@H]1CC[C@H]2[C@@H]3CCC4=CC(=O)CC[C@]4(C)[C@H]3CC[C@]12C
inactive: dose: 12.5 mg/kg/injection, schedule: Q02DX009 (ip), vehicle: Klucel (hydroxypropylcellulose) (HPC) 104 % of control | dose: 25.0 mg/kg/injection, schedule: Q02DX009 (ip), vehicle: Klucel (hydroxypropylcellulose) (HPC) 96 % of control | dose: 50.0 mg/kg/injection, schedule: Q02DX009 (ip), vehicle: Klucel (hydroxypropylcellulose) (HPC) 100 % of control | dose: 100.0 mg/kg/injection, schedule: Q02DX009 (ip), vehicle: Klucel (hydroxypropylcellulose) (HPC) 91 % of control | dose: 200.0 mg/kg/injection, schedule: Q02DX009 (ip), vehicle: Klucel (hydroxypropylcellulose) (HPC) 120 % of control | dose: 400.0 mg/kg/injection, schedule: Q02DX009 (ip), vehicle: Klucel (hydroxypropylcellulose) (HPC) 104 % of control

S=C(N=Nc1ccccc1)NNc1ccccc1
inactive: dose: 18.8 mg/kg/injection, schedule: Q04DX003 (ip), vehicle: saline with Tween-80 102 % of control | dose: 18.9 mg/kg/injection, schedule: Q01DX009 (ip), vehicle: saline with Tween-80 88 % of control | dose: 37.5 mg/kg/injection, schedule: Q01DX009 (ip), vehicle: saline with Tween-80 93 % of control | [2] 92 % of control | dose: 75.0 mg/kg/injection, schedule: Q04DX003 (ip), vehicle: saline with Tween-80 92 % of control | dose: 150.0 mg/kg/injection, schedule: Q04DX003 (ip), vehicle: saline with Tween-80 97 % of control

CC(C)=CCN1CCC2(C)c3cc(O)ccc3CC1C2C (centres undefined)
inactive: dose: 0.39 mg/kg/injection, schedule: Q01DX009 (ip), vehicle: Klucel (hydroxypropylcellulose) (HPC) 123 % of control | [3] 102 % of control | [4] 123 % of control | [5] 105 % of control

C(=N\OCc1ccccc1)/c1ccccn1
inactive: [6] 101 % of control | [7] 101 % of control | dose: 400.0 mg/kg/injection, schedule: Q01DX009 (ip), vehicle: Klucel (hydroxypropylcellulose) (HPC) 97 % of control

Cc1ccc2nc(-c3cc(Br)ccc3O)c(-c3cc(Br)ccc3O)nc2c1
inactive: [6] 90 % of control | [7] 88 % of control

O=C(Nc1ccc2c(c1)OCO2)O/N=C1\C(=O)Nc2ccccc21
active: dose: 25.0 mg/kg/injection, schedule: Q04DX003 (ip), vehicle: saline 153 % of control
inactive: dose: 16.5 mg/kg/injection, schedule: Q04DX003 (ip), vehicle: saline with Tween-80 100 % of control | [1] 109 % of control | dose: 25.0 mg/kg/injection, schedule: Q04DX003 (ip), vehicle: saline with Tween-80 100 % of control | [2] 95 % of control | [8] 104 % of control | [9] 100 % of control

CCCC(O)C(CC)CO (centres undefined)
inactive: [9] 100 % of control | [10] 121 % of control | [11] 115 % of control

O=C(O)C(O)C(=O)O.[NH2-].[NH2-].[Pt+2]
inactive: dose: 1.0 mg/kg/injection, schedule: Q01DX009 (ip), vehicle: other 104 % of control
active: dose: 8.0 mg/kg/injection, schedule: Q01DX009 (ip), vehicle: other 156 % of control and 175 % of control and 192 % of control | dose: 16.0 mg/kg/injection, schedule: Q01DX009 (ip), vehicle: other 197 % of control and 288 % of control and 300 % of control | dose: 32.0 mg/kg/injection, schedule: Q01DX009 (ip), vehicle: other 281 % of control

Cc1cc(C)c(OCC(O)CO)c(C)c1 (centres undefined)
inactive: [9] 104 % of control | [10] 93 % of control

O=C(OCc1ccccc1)C(Cl)(Cl)Cl
inactive: dose: 100.0 mg/kg/injection, schedule: Q04DX003 (ip), vehicle: saline with Tween-80 105 % of control | dose: 200.0 mg/kg/injection, schedule: Q04DX003 (ip), vehicle: saline with Tween-80 100 % of control | dose: 400.0 mg/kg/injection, schedule: Q04DX003 (ip), vehicle: saline with Tween-80 102 % of control

Nc1ccc(OS(=O)(=O)c2ccccc2)cc1
inactive: [8] 97 % of control | [9] 100 % of control | [10] 101 % of control | [11] 90 % of control

N=C(N)c1nn(C2OC(CO)C(O)C2O)c2ncnc(N)c12 (centres undefined)
inactive: [3] 97 % of control | [4] 98 % of control | dose: 3.12 mg/kg/injection, schedule: Q01DX009 (ip), vehicle: Klucel (hydroxypropylcellulose) (HPC) 93 % of control and 99 % of control | [5] 102 % of control | dose: 12.5 mg/kg/injection, schedule: Q01DX009 (ip), vehicle: Klucel (hydroxypropylcellulose) (HPC) 90 % of control | dose: 25.0 mg/kg/injection, schedule: Q01DX009 (ip), vehicle: Klucel (hydroxypropylcellulose) (HPC) 101 % of control

CCc1ccc(C(=O)CCCCl)cc1
inactive: [8] 102 % of control | [9] 100 % of control | [10] 109 % of control

CC(=O)Oc1cc(C)c(OC(C)=O)c2ccccc12
inactive: [12] 94 % of control | [6] 88 % of control

ClC(c1ccccc1)c1ccc(Br)cc1 (centres undefined)
inactive: [12] 105 % of control | [6] 97 % of control | [7] 88 % of control

COc1cccc(N2C(=O)CSC2=S)c1
inactive: [6] 93 % of control | [7] 90 % of control

NCCc1c[nH]c2ccccc12
inactive: dose: 100.0 mg/kg/injection, schedule: Q04DX003 (ip), vehicle: saline 120 % of control | dose: 200.0 mg/kg/injection, schedule: Q04DX003 (ip), vehicle: saline 112 % of control

CN(C)c1ccc(C(=C2C=CC(=[N+](C)C)C=C2)c2ccc(N(C)C)cc2)cc1 (tested in a mixture with another compound)
inactive: dose: 0.31 mg/kg/injection, schedule: Q01DX009 (ip), vehicle: saline with Tween-80 123 % of control | dose: 0.62 mg/kg/injection, schedule: Q01DX009 (ip), vehicle: saline with Tween-80 109 % of control | dose: 1.25 mg/kg/injection, schedule: Q01DX009 (ip), vehicle: saline with Tween-80 104 % of control | dose: 2.5 mg/kg/injection, schedule: Q01DX009 (ip), vehicle: saline with Tween-80 116 % of control

NC(=O)NC1CCCCCC1
inactive: [9] 108 % of control | [10] 104 % of control | [11] 95 % of control

COc1ccccc1NC(=O)Nc1cccc(C)c1C
inactive: [6] 87 % of control | [7] 86 % of control

O=C(O)CCC(NC(=O)OCc1ccccc1)C(=O)OCc1ccccc1 (centres undefined)
inactive: [12] 86 % of control | [6] 86 % of control | [7] 96 % of control

OCC#CCOCC(O)CCl (centres undefined)
inactive: dose: 25.0 mg/kg/injection, schedule: Q01DX009 (ip), vehicle: water 102 % of control | dose: 50.0 mg/kg/injection, schedule: Q01DX009 (ip), vehicle: water 98 % of control | dose: 100.0 mg/kg/injection, schedule: Q01DX009 (ip), vehicle: water 92 % of control

CS(C)=O
inactive: dose: 1:200.0 dilution, schedule: Q03HX088 (ip), vehicle: saline 89 % of control | dose: 1:400.0 dilution, schedule: Q03HX088 (ip), vehicle: saline 89 % of control | dose: 1.5 grams/kg/injection, schedule: Q01DX009 (ip), vehicle: saline 96 % of control and 101 % of control | dose: 3.0 grams/kg/injection, schedule: Q01DX009 (ip), vehicle: saline 106 % of control and 108 % of control | dose: 6.0 grams/kg/injection, schedule: Q01DX009 (ip), vehicle: saline 97 % of control
